Test results published in patent publication US12030864B2, “Small molecule anticancer agents, combinations and uses thereof” (priority 2018, dated 2024).
Where two headings read alike, the source gives them in different places.

Key:
[1] = test system: DR5Long in MDA-MB-468 cell line; assay type: cell-based
Source text: A MDA-MB-468 cell line was engineered to stably express the long form of DR5 (DR5Long) in a tetracycline-inducible manner in order to separate DR5A effects on DR5 protein stability from transcriptional activation.

MDA-MB-468 cell line = experiment: Cell proliferation assay; assay type: cell-based; conditions: 24 treatment, FIG. 13
Procedure: (§1) Cell viability (FIG. 12), proliferation (FIG. 13), and protein synthesis (FIG. 14) assays were performed in MDA-MB-468 cell line in the presence of increasing concentrations of tcyDTDO or DMtcyDTDO.

MDA-MB-468 cells [2] = experiment: Protein synthesis assay; assay type: cell-based
Procedure: FIG. 11. depicts the inhibition of global protein synthesis upon treatment of MDA-MB-468 cells with tcyDTDO.
as §1
(§2) Thus, without being bound by any particular theory, it is speculated that compounds of Formula (I)-(VI) regulate DR5 steady-state protein levels in addition to the observed transcriptional induction.

MDA-MB-468 cells [3] = experiment: Immunoblot assays; assay type: cell-based; conditions: for PARP cleavage: MDA-MB-468, single agent, FIG. 15; for responsiveness of the cell line to treatment: MDA-MB-468 TNBC line
[4] = test system: EGFR, DR4, and DR5 in MDA-MB-468 breast cancer cells; experiment: Immunoblot of cell extracts prepared under non-reducing conditions; assay type: cell-based; conditions: 24 h, FIG. 16
Procedure: MDA-MB-468 breast cancer cells were treated for 24 h with the indicated concentrations of DMtcyDTDO and cells were analyzed by immunoblot. Cell extracts were prepared under non-reducing conditions in the presence of 100 mM N-ethylmaleimide to preserve disulfide bonding patterns (FIG. 16). […] The oligomerized forms of DR4 and DR5 represent the activated form of these receptors.

MDA-MB-468 cells [5] = experiment: MTT cell viability assay; assay type: cell-based
Procedure: MTT cell viability was evaluated using MTT (3-(4,5-dimethylthiazol-2-yl)-2,5-diphenyltetrazolium bromide) assays carried out based on the manufacturer's instructions (kit CGD1, Sigma-Aldrich, St. Louis, MO).
Cell viability assays were performed in MDA-MB-468 (FIG. 8) and BT474 (FIG. 9) cell lines in the presence of increasing concentrations of tcyDTDO and/or TRAIL using the MTT method. The results were analyzed using the Chou-Talalay method [T. C. Chou, P. Talalay, Generalized equations for the analysis of inhibitions of Michaelis-Menten and higher-order kinetic systems with two or more mutually exclusive and nonexclusive inhibitors, Eur J Biochem, 115 (1981) 207-216; T. C. Chou, P. Talalay, Quantitative analysis of dose-effect relationships: the combined effects of multiple drugs or enzyme inhibitors, Adv Enzyme Regul, 22 (1984) 27-55.] to calculate combination indices (Cis) where CI<1 denotes synergy, CI=1 denotes additivity, and C I>1 denotes antagonism.
as §1

[6] = test system: protein thiolates of MDA-MB-468 cell lysates; experiment: Protein thiolate reactivity assay (BGPD labeling of cell lysates); assay type: biochemical; conditions: MDA-MB-468 cell lysates treated with compound in molar excess, then BGPD; FIG. 2
Procedure: To assess tcyDTDO reactivity with protein thiolates, MDA-MB-468 cell lysates were treated with various compounds in sufficient molar excess to block all protein thiolates. A non-selective thiol-reactive biotinylated analog (BGPD, FIG. 2) was then added to quantify free thiolates remaining after the pre-labeling.

[7] = test system: DR5 transcription in HEK293 cells; experiment: DR5 transcriptional reporter construct; assay type: cell-based; conditions: 5 μM; FIG. 10
Source text: FIG. 10. depicts increases in DR5 transcription by tcyDTDO in HEK293 cells as measured using a transcriptional reporter construct.
as §2

BT474 cells = experiment: Immunoblot assays; assay type: cell-based; conditions: BT474 cancer line
DR5 in MDA-MB-468 cells = experiment: DR5 oligomerization immunoblot; assay type: cell-based; conditions: FIGS. 6 and 7
Source text: Oligomerization of DR5 was also investigated in MDA-MB-468 cells as shown in FIG. 6 and FIG. 7, which is a magnification of the DR5Long/DR5Short portion of the immunoblot in FIG. 6.

For C/C=C(/C)C(=O)O[C@H]1C(C)=C2[C@H]([C@@H]1OC(=O)CCCCCCC)[C@@](C)(OC(C)=O)C[C@H](OC(=O)CCC)[C@@]1(O)[C@H]2OC(=O)[C@@]1(C)O [Thapsigargin], the “doxycycline-mediated increase in DR5Long” value ([1]; reducing conditions, FIG. 5) was “did not mimic the effects of tcyDTDO”.
In the case of CO[C@H]1C[C@@H]2CS(=O)(=O)SC[C@H]2C[C@@H]1OC (racemic) [DMtcyDTDO, (4aS,6S,7S,8aS)- and (4aR,6R,7R,8aR)-6,7-Dimethoxyoctahydrobenzo[d][1,2]dithiine 2,2-dioxide], the “effect on proliferation compared to equal doses of tcyDTDO” value (MDA-MB-468 cell line) is reported as “significantly greater effect”, the “effect on protein synthesis compared to equal doses of tcyDTDO” value (MDA-MB-468 cells [2]; 24 treatment, FIG. 14) is reported as “significantly greater effect” and the PARP cleavage (MDA-MB-468 cells [3]) is reported as “induce PARP cleavage”. The “responsiveness of the cell line to treatment” value (“responsiveness” below) (MDA-MB-468 cells [3]) was “highly responsive”, the “oligomerization of EGFR, DR4, and DR5” value ([4]; 100 mM N-ethylmaleimide) was “induces oligomerization of EGFR, DR4, and DR5” and the DR5 level [4] was “upregulates DR5”. The “effect on cell viability compared to equal doses of tcyDTDO” value (MDA-MB-468 cells [5]; MDA-MB-468, 24 treatment, FIG. 12) was “significantly greater effect”.
In the case of Cyclosporine A [Cyclosporine A (CsA)], the “doxycycline-mediated increase in DR5Long” value [1] is reported as “did not mimic the effects of tcyDTDO”.
With O=S1(=O)CC2CCCCC2CS1 (stereo not shown) [tcyDTDO] the inhibition at 5 µM (MDA-MB-468 cells [2]; Homo sapiens, 5 μM, FIG. 11, read-out: inhibition of global protein synthesis) was greater than 95%, the “BGPD labeling of free thiolates remaining after pre-labeling” value [6] was “did not reduce BGPD labeling” and the DR5 transcription [7] was “increased DR5 transcription”. The “doxycycline-mediated increase in DR5Long” value ([1]; reducing conditions, FIG. 5) was “enhanced”, the PARP cleavage (MDA-MB-468 cells [3]) was “induce PARP cleavage” and the “responsiveness” value (MDA-MB-468 cells [3]) was “highly responsive”. For the same molecule, the DR5 expression (MDA-MB-468 cells [3]; immunoblot) was “increased DR5 expression”, the “potency in reducing cancer cell viability” value (MDA-MB-468 cells [5]; MTT, FIG. 1, compared with the other compounds profiled) was “most potent compound identified so far” and the “responsiveness” value (BT474 cells) was “highly responsive”. The “DR5 dimerization and oligomerization” value (DR5 in MDA-MB-468 cells) was “increase in DR5 dimerization and oligomerization”.
With Tunicamycin the “doxycycline-mediated increase in DR5Long” value ([1]; reducing conditions, FIG. 5) was “did not mimic the effects of tcyDTDO”.
With CC(C)[C@H](NC(=O)c1ccc2ccccc2n1)C(=O)N[C@@H](CC(=O)O)C(=O)COc1c(F)cccc1F [Q-VD-OPH, reference compound] the “effect on tcyDTDO/TRAIL downregulation of EGFR, Akt, phospho-Akt, PDK1” value (MDA-MB-468 cells [3]; MDA-MB-468 cells) was “partially reverses”, the “effect on tcyDTDO-mediated upregulation of DR5 or the ER stress response” value (MDA-MB-468 cells [3]; caspase inhibitor added) was “does not alter” and the “effect on PARP cleavage induced by tcyDTDO/TRAIL” value (MDA-MB-468 cells [3]; caspase inhibitor added, FIGS. 3, 4) was “blocked”.
O[C@H](CS)[C@H](O)CS (racemic) [Dithiothreitol (DTT), Dithiothreitol] was tested, and the “doxycycline-mediated increase in DR5Long” value ([1]; reducing conditions, FIG. 5) was “did not mimic the effects of tcyDTDO”.
For CCN1C(=O)C=CC1=O [N-ethylmaleimide (NEM), N-ethylmaleimide, reference compound], the “BGPD labeling of free thiolates remaining after pre-labeling” value [6] was “prevented BGPD labeling”.
